Where two headings read alike, the source gives them in different places.

The subject of test [1] is mitochondrial membrane potential. It is filed as cell-based, mouse. To be noted: Conc 20 μM; for ΔΨm (composite Z-score): normalized score vs mock-treated (DMSO) wells.
Test [2] relates to reactive oxygen species. The format is cell-based, mouse. To be noted: Conc 20 μM; for ROS (composite Z-score): normalized score vs mock-treated (DMSO) wells.
Test [3] has as its system OXPHOS gene expression. The format is cell-based, mouse. To be noted: Conc 20 μM; for GE-HTS (composite Z-score): normalized score vs mock-treated (DMSO) wells.
The subject of test [4] is nuOXPHOS transcripts. It is filed as cell-based, mouse. As to conditions: Conc 20 μM; for nucOX (composite Z-score): normalized score vs mock-treated (DMSO) wells.
Test [5] relates to mtOXPHOS transcripts. It is filed as cell-based, mouse. To be noted: Conc 20 μM; for mitoOX (composite Z-score): normalized score vs mock-treated (DMSO) wells.
The subject of test [6] is cytochrome c. The format is cell-based, mouse. As to conditions: for cyt c (composite Z-score): normalized score vs mock-treated (DMSO) wells.
Test [7] concerns C2C12 myotubes. To be noted: Conc 20 μM; for Viability (composite Z-score): normalized score vs mock-treated (DMSO) wells.
Test [8] relates to cellular dehydrogenase activity. As to conditions: Conc 20 μM; for MTT (composite Z-score): normalized score vs mock-treated (DMSO) wells.
[9] abbreviates: composite Z-score vs DMSO wells.
Setting [10] is: composite Z-score vs DMSO wells, Conc 20 μM.
Where [11] appears, read: normalized composite Z-score vs mock-treated (DMSO) wells.
Where [12] appears, read: normalized composite Z-score vs mock-treated (DMSO) wells, Conc 20 μM.
[13] abbreviates: composite Z-score vs DMSO, Conc 20 μM.

Take `OC[C@H]1O[C@@H](Oc2cc(O)cc(/C=C/c3ccc(O)cc3)c2)[C@H](O)[C@@H](O)[C@@H]1O` [piceid]: in test [1], the “ΔΨm (composite Z-score)” value was 0.088. The “ROS (composite Z-score)” value in test [2] is reported as 0.862. Further, in test [3], the “GE-HTS (composite Z-score)” value was determined as 0.110. Besides, the “nucOX (composite Z-score)” value in test [4] is given as 0.088. Further, the “mitoOX (composite Z-score)” value in test [5] is reported as 0.124. Moreover, the “cyt c (composite Z-score)” value in test [6] (Conc 20 μM) worked out at 0.272. Moreover, the “Viability (composite Z-score)” value in test [7] is −0.341. Further, in test [8], the “MTT (composite Z-score)” value is −0.826.

For `OCc1ccccc1O` [salicyl alcohol], the ΔΨm in test [1] (setting [9]) is on record as −0.590. For the same compound, the ROS in test [2] (setting [9]) stood at 0.479. Also, in test [3] (setting [9]), the GE-HTS was −0.486. Also, in test [4] (setting [9]), the nucOX is −0.433. Besides, the mitoOX in test [5] (setting [9]) is −0.498. In addition, the cyt c in test [6] (setting [10]) is recorded as 0.424. In test [7] (setting [9]), this compound registered a Viability of 0.377. In test [8] (setting [9]), this compound displayed an MTT of −0.178.

For `Cc1c(O)c(C(=O)CC(C)C)c2oc3c(C(=O)CC(C)C)c(O)c(C)c(O)c3c2c1O` [rhodomyrtoxin], the “ΔΨm (composite Z-score)” value in test [1] came to 2.834. Further, the “ROS (composite Z-score)” value in test [2] is on record as 0.397. The “GE-HTS (composite Z-score)” value in test [3] was determined as 0.357. In addition, the “nucOX (composite Z-score)” value in test [4] was 0.412. Moreover, the “mitoOX (composite Z-score)” value in test [5] was determined as 0.206. For the same compound, in test [6] (Conc 20 μM), the “cyt c (composite Z-score)” value is −1.200. Further, the “Viability (composite Z-score)” value in test [7] is −0.636. In test [8], the “MTT (composite Z-score)” value is reported as 2.413.

As for `COc1ccc2c(c1)O[C@H]1c3ccc(OC)cc3OC[C@@H]21` [homopterocarpin], the ΔΨm in test [1] (setting [11]) was −0.306. Further, the ROS in test [2] (setting [11]) is recorded as −0.616. In test [3] (setting [11]), this compound returned a GE-HTS of −0.918. Also, the nucOX in test [4] (setting [11]) is −0.713. The mitoOX in test [5] (setting [11]) was −1.126. This compound showed a cyt c in test [6] (setting [12]) of 0.575. The compound also registered a Viability in test [7] (setting [11]) of 0.549. This compound displayed an MTT in test [8] (setting [11]) of −0.578.

In test [1] (setting [11]), `CC1=C(/C=C/C(C)=C/C=C/C(C)=C/C=C/C=C(C)/C=C/C=C(C)/C=C/[C@@]23O[C@]2(C)C[C@@H](O)CC3(C)C)C(C)(C)C[C@H](O)C1` [antheraxanthin] gave a ΔΨm of −0.305. Also, in test [2] (setting [11]), the ROS is listed as 0.244. The compound further gave a GE-HTS in test [3] (setting [11]) of 0.013. In test [4] (setting [11]), this compound showed a nucOX of 0.026. Moreover, in test [5] (setting [11]), the mitoOX was −0.011. Besides, in test [6] (setting [12]), the cyt c is −0.206. For the same compound, the Viability in test [7] (setting [11]) is reported as −0.496. Besides, the MTT in test [8] (setting [11]) was −0.804.

Regarding `CC(=O)Oc1ccc(/C=C/c2cc(OC(C)=O)cc(OC(C)=O)c2)cc1` [triacetylresveratrol], in test [1] (setting [11]), the ΔΨm is listed as −3.502. Further, the ROS in test [2] (setting [11]) was −1.361. In test [3] (setting [11]), the GE-HTS was −1.841. This compound also returned a nucOX in test [4] (setting [11]) of −1.858. Also, in test [5] (setting [11]), the mitoOX is −1.401. Also, in test [6] (setting [12]), the cyt c is recorded as 0.683. This compound also yielded a Viability in test [7] (setting [11]) of −0.198. For the same compound, in test [8] (setting [11]), the MTT was −2.002.

In test [1] (composite Z-score vs DMSO), `COc1ccc2cc([C@H](C)CO)ccc2c1` [naproxol] showed a ΔΨm of −0.500. This compound also gave an ROS in test [2] (composite Z-score vs DMSO) of −0.319. The GE-HTS in test [3] (composite Z-score vs DMSO) is recorded as −0.895. Also, the nucOX in test [4] (composite Z-score vs DMSO) is −1.214. The same compound displayed a mitoOX in test [5] (composite Z-score vs DMSO) of −0.018. The compound also yielded a cyt c in test [6] (setting [13]) of 0.993. Moreover, the Viability in test [7] (composite Z-score vs DMSO) came out at 0.249. For the same compound, in test [8] (composite Z-score vs DMSO), the MTT is given as −1.522.

For the compound `Sc1nc2ccccc2s1` [2-mercaptobenzothiazole], the “ΔΨm (composite Z-score)” value in test [1] is −0.486. For the same compound, the “ROS (composite Z-score)” value in test [2] came out at 0.354. The “GE-HTS (composite Z-score)” value in test [3] was −0.211. Besides, in test [4], the “nucOX (composite Z-score)” value is −0.231. In addition, the “mitoOX (composite Z-score)” value in test [5] is recorded as −0.097. In test [6] (Conc 20 μM), the “cyt c (composite Z-score)” value is reported as −0.026. Moreover, the “Viability (composite Z-score)” value in test [7] was −0.830. In test [8], the “MTT (composite Z-score)” value was −0.672.

In turn, `O=C(O)c1cccc(O)c1O` [pyrocatechuic acid] showed a ΔΨm in test [1] (composite Z-score vs DMSO) of −1.204. Besides, the ROS in test [2] (composite Z-score vs DMSO) came to 1.147. This compound registered a GE-HTS in test [3] (composite Z-score vs DMSO) of −0.386. Besides, in test [4] (composite Z-score vs DMSO), the nucOX is recorded as −0.324. The same compound showed a mitoOX in test [5] (composite Z-score vs DMSO) of −0.367. For the same compound, in test [6] (setting [13]), the cyt c is recorded as −0.018. Besides, the Viability in test [7] (composite Z-score vs DMSO) is given as −1.076. This compound also had an MTT in test [8] (composite Z-score vs DMSO) of −1.800.

`CCCCNc1ccc(C(=O)OCCN(C)C)cc1` [tetracaine]: in test [1] (setting [9]), the ΔΨm is −0.492. The compound also registered an ROS in test [2] (setting [9]) of 0.320. In test [3] (setting [9]), this compound had a GE-HTS of −0.280. The same compound gave a nucOX in test [4] (setting [9]) of −0.376. This compound also came in with a mitoOX in test [5] (setting [9]) of −0.034. Besides, the cyt c in test [6] is reported as −0.536; in test [6] (setting [10]), 0.383. In test [7] (setting [9]), this compound displayed a Viability of −0.539. For the same compound, the MTT in test [8] (setting [9]) is −0.048.

(Values after patent US20090143279A1 (priority 2007, published 2009).)
